# Data as given in ChEMBL document CHEMBL1201862, “PubChem BioAssay data set” (2004).
# Active and inactive are the calls of the source.
# Key:
# Protein RecA = biological target: T1, Protein RecA (Mycobacterium tuberculosis, UniProt P9WHJ3); test: Fluorescence Cell-Free Homogeneous Dose Retest to Identify Inhibitors of RecA-Intein Splicing Activity. [Related pubchem assays (depositor defined):AID2097, AID2223, AID489010, AID492950]; format: functional
# T1 sequence (P9WHJ3 whole entry): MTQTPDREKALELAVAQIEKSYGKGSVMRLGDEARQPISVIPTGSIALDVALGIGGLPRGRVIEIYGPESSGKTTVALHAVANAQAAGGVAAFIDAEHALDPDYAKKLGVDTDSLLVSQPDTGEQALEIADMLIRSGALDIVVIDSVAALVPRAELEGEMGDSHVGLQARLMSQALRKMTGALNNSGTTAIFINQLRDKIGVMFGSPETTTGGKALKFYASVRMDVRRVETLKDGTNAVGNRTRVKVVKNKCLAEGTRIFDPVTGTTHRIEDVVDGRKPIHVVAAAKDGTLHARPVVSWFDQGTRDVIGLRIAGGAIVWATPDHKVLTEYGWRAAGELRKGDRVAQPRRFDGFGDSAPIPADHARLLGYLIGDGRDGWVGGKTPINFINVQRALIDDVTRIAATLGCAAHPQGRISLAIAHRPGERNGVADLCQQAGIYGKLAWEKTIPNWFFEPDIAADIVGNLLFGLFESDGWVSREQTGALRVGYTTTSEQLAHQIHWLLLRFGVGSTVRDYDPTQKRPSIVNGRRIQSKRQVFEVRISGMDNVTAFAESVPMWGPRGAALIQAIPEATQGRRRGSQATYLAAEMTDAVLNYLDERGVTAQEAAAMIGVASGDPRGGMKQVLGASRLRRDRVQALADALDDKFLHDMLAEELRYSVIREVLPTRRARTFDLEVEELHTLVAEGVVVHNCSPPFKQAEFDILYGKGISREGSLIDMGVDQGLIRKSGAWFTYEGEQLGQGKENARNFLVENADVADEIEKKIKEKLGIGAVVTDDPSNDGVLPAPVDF
# [1] = biological target: T2, Replicative DNA helicase DnaB (Mycobacterium tuberculosis, UniProt P9WMR3); test: DnaB intein splicing inhibitors, dose response, biochemical, cell-free fluorescence (AID 449749); format: functional
# T2 sequence (P9WMR3 whole entry): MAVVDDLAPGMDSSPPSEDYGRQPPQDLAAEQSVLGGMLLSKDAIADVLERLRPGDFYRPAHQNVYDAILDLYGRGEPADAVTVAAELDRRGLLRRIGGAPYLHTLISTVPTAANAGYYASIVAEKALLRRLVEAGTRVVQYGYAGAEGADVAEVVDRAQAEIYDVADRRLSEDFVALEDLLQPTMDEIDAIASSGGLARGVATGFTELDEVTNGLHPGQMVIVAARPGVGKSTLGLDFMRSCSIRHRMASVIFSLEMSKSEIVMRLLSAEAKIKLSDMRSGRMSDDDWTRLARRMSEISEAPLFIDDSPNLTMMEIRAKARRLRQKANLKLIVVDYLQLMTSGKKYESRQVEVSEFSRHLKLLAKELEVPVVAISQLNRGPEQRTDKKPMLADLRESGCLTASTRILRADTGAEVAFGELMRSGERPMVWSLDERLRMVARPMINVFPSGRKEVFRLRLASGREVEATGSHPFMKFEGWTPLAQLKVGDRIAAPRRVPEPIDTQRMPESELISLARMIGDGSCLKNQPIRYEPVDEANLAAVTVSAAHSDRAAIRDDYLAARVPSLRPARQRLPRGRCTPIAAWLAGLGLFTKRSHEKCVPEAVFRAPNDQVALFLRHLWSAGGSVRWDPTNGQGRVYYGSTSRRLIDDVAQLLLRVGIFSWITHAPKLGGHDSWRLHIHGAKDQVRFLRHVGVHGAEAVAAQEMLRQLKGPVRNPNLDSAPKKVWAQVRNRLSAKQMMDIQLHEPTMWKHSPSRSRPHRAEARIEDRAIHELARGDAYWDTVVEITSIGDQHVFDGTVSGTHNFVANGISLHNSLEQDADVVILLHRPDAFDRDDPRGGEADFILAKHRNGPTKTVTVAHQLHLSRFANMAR
# [2] = biological target: T3, Microphthalmia-associated transcription factor (Homo sapiens, UniProt O75030); test: reducers of TRPM1 reporter luminescence, concentration series – cell-based, SK-MEL-5, cherry-picked, set 3, MITF inhibitor project, dose response (AID 493073); format: functional;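 further: SK-MEL-5 melanoma cells with luciferase driven by the MITF target TRPM1 promoter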
# T3 sequence (O75030 whole entry): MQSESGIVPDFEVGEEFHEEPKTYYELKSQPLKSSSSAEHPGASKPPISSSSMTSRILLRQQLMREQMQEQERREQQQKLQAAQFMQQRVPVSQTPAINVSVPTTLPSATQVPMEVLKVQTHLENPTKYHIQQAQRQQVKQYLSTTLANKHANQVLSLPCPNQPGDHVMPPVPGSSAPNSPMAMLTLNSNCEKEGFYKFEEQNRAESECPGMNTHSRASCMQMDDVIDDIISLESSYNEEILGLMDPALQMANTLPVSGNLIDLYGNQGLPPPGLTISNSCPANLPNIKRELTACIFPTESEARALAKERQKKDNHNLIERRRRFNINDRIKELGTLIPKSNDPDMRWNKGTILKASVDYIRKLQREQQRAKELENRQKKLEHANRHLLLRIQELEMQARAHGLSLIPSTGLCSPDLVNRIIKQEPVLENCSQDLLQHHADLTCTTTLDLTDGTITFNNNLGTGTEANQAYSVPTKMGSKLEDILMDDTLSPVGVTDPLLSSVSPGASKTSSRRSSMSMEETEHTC
# [3] = viability loss in HEK293 cells – cell-based, plate reader, cherry-picked samples, cytotoxicity control, dose response (AID 743446); format: functional
# BJ [4] = test: BJ-TERT fibroblast viability loss – cell-based, RAS-independent, luminescence, dose response (AID 1933); format: functional; settings: Homo sapiens
# [5] = Luminescence Cell-Based Dose Response HTS to Identify Inhibitors of 5'UTR Stem-Loop Driven Prion Protein mRNA Translation in H4 Neuroglioblastoma Cells. [Related pubchem assays: 1827 (Project Summary), 1813 (Primary HTS)]; format: functional
# [6] = DRD fibroblast viability loss – cell-based, non-viral oncogenic, luminescence, dose response (AID 1934); format: functional; settings: Homo sapiens
# [7] = alpha-synuclein stem-loop luciferase translation blockers – H4 neuroglioma cells, luminescence, confirmation (AID 1988); format: functional, cell-based
# BJ [8] = test: BJ-TERT-LT-ST fibroblast viability loss – cell-based, RAS-independent, luminescence, dose response (AID 1935); format: functional; settings: Homo sapiens;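 further: BJ fibroblasts immortalized with TERT plus LT and ST oncogenes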
# [9] = biological target: Luciferin 4-monooxygenase (Photinus pyralis, UniProt P08659); test: inhibition of purified Photinus pyralis luciferase – biochemical, luminescence, dose response (AID 1891)
# Chain of Luciferin 4-monooxygenase (P08659 whole entry): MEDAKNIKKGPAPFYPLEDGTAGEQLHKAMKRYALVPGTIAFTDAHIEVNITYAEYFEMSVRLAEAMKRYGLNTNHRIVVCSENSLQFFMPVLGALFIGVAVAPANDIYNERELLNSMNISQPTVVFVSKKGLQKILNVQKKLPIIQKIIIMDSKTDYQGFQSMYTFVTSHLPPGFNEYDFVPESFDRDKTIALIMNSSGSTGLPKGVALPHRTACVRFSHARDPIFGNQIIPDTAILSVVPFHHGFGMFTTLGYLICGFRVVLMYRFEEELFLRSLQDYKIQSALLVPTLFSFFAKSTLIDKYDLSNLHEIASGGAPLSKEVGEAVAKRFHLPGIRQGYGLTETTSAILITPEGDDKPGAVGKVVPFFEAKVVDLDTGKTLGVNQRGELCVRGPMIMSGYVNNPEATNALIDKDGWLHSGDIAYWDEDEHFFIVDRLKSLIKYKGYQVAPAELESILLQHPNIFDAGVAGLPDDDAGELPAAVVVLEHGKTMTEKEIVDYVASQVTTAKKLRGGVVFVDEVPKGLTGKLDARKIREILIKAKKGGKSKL
# BJ [10] = test: cells; format: functional, cell-based; settings: Homo sapiens
# [11] = toxicity toward HepG2 liver cells – cell-based, plate reader, cherry-pick, antagonist series, cytotoxicity control, dose response (AID 743416); format: functional
# [12] = blockers of bursicon-stimulated LGR2 cAMP reporter – cell-based, HEK293, CRE-luciferase reporter, cherry pick, set 2, dose response (AID 743343); format: functional;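 further: transfected cells were stimulated with diluted bursicon conditioned medium after compound addition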
# [13] = A549 cell cytotoxicity, dose response, cytotoxicity control, plate reader, cherry-pick, antagonist series (AID 743412); format: functional, cell-based
# [14] = Luminescence Cell-Based Dose Confirmation HTS to Identify Inhibitors of Platelet Dense Granule Release. [Related pubchem assays: 1663 (Primary HTS), 1678 (Summary of Project)]; format: functional
# [15] = blockade of melanocortin 4 receptor signaling – cell-based, plate reader, cherry pick, counter-screen for LGR2 antagonist project, dose response (AID 743444); format: functional;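 further: transfected HEK 293 cells stimulated with alpha-MSH peptide; potency of inhibitors of the alpha-MSH evoked signal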
# [16] = biological target: T4, DNA repair and recombination protein RAD54-like (Homo sapiens, UniProt Q92698); test: RAD54 Holliday junction migration blockers – biochemical, fluorescence, cherry-picked samples, dose series, confirmation (AID 651657); format: functional
# T4 sequence (Q92698 whole entry): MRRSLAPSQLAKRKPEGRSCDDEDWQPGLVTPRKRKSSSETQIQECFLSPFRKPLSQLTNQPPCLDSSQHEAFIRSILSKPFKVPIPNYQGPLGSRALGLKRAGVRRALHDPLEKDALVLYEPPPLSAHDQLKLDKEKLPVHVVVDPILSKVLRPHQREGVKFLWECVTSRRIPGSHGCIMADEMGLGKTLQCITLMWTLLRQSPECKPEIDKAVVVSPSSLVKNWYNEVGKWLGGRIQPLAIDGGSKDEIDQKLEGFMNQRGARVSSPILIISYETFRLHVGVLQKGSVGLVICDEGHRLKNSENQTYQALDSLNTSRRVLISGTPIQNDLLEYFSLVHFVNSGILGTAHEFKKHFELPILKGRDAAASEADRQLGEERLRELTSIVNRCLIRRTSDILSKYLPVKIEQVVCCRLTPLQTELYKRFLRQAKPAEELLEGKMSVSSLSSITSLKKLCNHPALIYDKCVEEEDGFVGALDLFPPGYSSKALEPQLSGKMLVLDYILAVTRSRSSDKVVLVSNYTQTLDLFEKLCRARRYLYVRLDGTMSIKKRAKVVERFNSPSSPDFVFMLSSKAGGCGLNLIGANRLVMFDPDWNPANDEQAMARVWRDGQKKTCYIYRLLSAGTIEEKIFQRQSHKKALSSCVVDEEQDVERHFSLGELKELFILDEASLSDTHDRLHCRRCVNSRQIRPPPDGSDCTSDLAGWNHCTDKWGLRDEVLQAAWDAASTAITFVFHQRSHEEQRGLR
# [17] = biological target: T5, Sentrin-specific protease 8 (Homo sapiens, UniProt Q96LD8); format: functional
# T5 sequence (Q96LD8 whole entry): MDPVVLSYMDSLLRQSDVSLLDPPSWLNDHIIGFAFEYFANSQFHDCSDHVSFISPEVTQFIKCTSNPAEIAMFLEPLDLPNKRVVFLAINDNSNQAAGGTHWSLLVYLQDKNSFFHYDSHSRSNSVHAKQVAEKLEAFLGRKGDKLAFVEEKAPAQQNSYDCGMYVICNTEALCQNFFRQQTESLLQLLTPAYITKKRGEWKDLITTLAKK
# [18] = biological target: T5, Sentrin-specific protease 8; format: functional; remark: listed apart in the source
# [19] = growth inhibition of PfATP4-mutant resistant parasites – NITD609-resistant line, SYBR Green, dry powder, dose response (AID 1159571); format: functional, cell-based;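 further: parasites synchronized at ring stage by sorbitol before testing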
# [20] = P. falciparum Dd2 growth inhibitors, dose response, SYBR Green, cherry-picked samples (AID 1159567); format: functional, cell-based
# [21] = growth inhibition of yeast DHODH-expressing 3D7 parasites – SYBR Green, dry powder samples, dose response (AID 1159570); format: functional, cell-based;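 further: parasite growth measured after 72 hours of compound exposure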
# [22] = Dd2 malaria parasite growth inhibition potency – SYBR Green, dry powder samples, dose response (AID 1159566); format: functional, cell-based;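 further: potency for growth inhibition with lower SYBR green DNA signal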
compound,measurement,setting,value
Cn1c(=O)c([N+](=O)[O-])c(-n2ccnc2)c2ccccc21,EC50,Protein RecA,6.43 µM (active)
same,AC50,[1],6.67 µM (active)
same,AC50,[2],6.6 µM (active)
Cc1cccc(-c2nc3cc(NC(=O)C4CCCO4)ccc3o2)c1 (stereo unspecified),AC50,[3],26.9 µM (active)
same,EC50,BJ [4],23.3 µM (active)
same,EC50,[5],9.83 µM (active)
same,EC50,[6],17 µM (active)
same,EC50,[7],9.78 µM (active)
same,EC50,BJ [8],> 150 µM (not active)
same,EC50,[9],1.51 µM (active)
same,EC50,BJ [10],19.8 µM (active)
same,AC50,[11],33.8 µM (active)
same,AC50,[12],9.84 µM (active)
same,AC50,[13],43.3 µM (active)
same,EC50,[14],1.57 µM (active)
same,AC50,[15],6.37 µM (active)
Cn1c2ccc(F)cc2c2ncn(CCCN(CCO)CCO)c(=O)c21,AC50,[16],28 µM (active)
O=[N+]([O-])c1ccc(C=NN2CCOCC2)s1,IC50,[17],31.9 µM (active)
same,IC50,[18],49 µM (active)
C[C@@H]1CN([C@H](C)CO)C(=O)c2cccc(NC(=O)Nc3ccc(C(F)(F)F)cc3)c2O[C@@H]1CN(C)CC1CCCCC1,AC50,[3],14 µM (active)
same,AC50,[11],9.17 µM (active)
same,AC50,[12],21.7 µM (active)
same,AC50,[13],7.8 µM (active)
same,AC50,[15],7.5 µM (active)
C[C@@H]1CN([C@H](C)CO)C(=O)Cc2cc(NC(=O)CCC(F)(F)F)ccc2O[C@@H]1CN(C)CC1CCCCC1,AC50,[3],> 52 µM (inactive)
same,AC50,[11],> 52 µM (inactive)
same,AC50,[13],47.9 µM (active)
COc1ccc(NC(=O)N(C)C[C@H]2Oc3c(NC(=O)Nc4ccccc4)cccc3C(=O)N([C@@H](C)CO)C[C@H]2C)cc1,AC50,[19],0.2 µM (active)
same,AC50,[20],< 0.3 µM (active)
same,AC50,[21],0.261 µM (active)
same,AC50,[22],0.167 µM (active)
